Broadly, the pEC50 is the EC50 on a negative log10 scale, so that one unit is a factor of ten.

Test [1] addresses T1, CIC-1 ion channel (Rattus norvegicus, UniProt P35524).
T1 construct: from tissue; host or cells: whole soleus muscle of 12-14 week old Wistar rats
T1 sequence (P35524 1-994): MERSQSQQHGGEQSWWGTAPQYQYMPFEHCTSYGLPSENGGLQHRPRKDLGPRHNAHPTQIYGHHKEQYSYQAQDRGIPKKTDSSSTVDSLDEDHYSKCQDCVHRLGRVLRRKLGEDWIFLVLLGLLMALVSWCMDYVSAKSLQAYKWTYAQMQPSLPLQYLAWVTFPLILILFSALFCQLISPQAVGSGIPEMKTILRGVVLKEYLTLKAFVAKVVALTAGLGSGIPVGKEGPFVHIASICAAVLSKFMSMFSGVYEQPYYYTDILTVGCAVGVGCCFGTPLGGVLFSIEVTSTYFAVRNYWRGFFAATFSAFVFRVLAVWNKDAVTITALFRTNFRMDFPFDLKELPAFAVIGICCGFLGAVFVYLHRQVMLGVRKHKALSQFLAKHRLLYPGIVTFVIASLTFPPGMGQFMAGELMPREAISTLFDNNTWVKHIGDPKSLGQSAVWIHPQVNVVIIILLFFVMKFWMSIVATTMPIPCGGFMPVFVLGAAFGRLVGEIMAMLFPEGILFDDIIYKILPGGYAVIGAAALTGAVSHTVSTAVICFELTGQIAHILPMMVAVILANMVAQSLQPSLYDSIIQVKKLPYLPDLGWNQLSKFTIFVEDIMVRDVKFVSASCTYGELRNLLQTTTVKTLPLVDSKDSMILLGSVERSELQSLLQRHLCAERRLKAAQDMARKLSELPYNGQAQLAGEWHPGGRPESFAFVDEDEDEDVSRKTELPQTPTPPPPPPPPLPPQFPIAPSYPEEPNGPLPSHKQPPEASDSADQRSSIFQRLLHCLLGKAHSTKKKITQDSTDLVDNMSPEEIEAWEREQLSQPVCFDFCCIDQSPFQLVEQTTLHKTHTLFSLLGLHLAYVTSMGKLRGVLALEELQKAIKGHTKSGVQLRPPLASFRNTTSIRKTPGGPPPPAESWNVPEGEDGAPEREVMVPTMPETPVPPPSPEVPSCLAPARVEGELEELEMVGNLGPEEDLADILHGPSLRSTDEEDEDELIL
Put plainly: Electrophysiological measurement of compound inhibition of CIC-1 in rat muscle (Gm in soleus fibres, three micro-electrodes). The format is cell-based. The note with it: Gm in individual fibres of whole rat soleus muscles, approx. 30° C., four increasing compound concentrations; read-out: Potency Range (EC50, inhibition of CIC-1 ion channel). As to the method:
Apparent CIC-1 affinity was reported by the concentration of compound at which 50% of the compound's full inhibition of CIC-1 was observed (EC50) (see also WO2019/115777).
Experimentally, Gm was measured in individual fibres of whole rat soleus muscles using a three micro-electrodes technique described in this example and in full detail elsewhere (Riisager et al., Determination of cable parameters in skeletal muscle fibres during repetitive firing of action potentials. Journal of Physiology, 2014, 592, 4417-4429). Briefly, intact rat soleus muscles were dissected out from 12-14 week old Wistar rats and placed in an experimental chamber that was perfused with a standard Krebs Ringer solution containing 122 mM NaCl, 25 mM NaHCO3, 2.8 mM KCl, 1.2 mM KH2PO4, 1.2 mM MgSO4, 1.3 mM CaCl2, 5.0 mM D-glucose. During experiments, the solution was kept at approx. 30° C. and continuously equilibrated with a mixture of 95% O2 and 5% CO2, pH ~7.4. The experimental chamber was placed in Nikon upright microscope that was used to visualize individual muscle fibres and the three electrodes (glass pipettes filled with 2 M potassium citrate). For Gm measurements, the electrodes were inserted into the same fibre with known inter-electrode distances of 0.35-0.5 mm (V1-V2, X1) and 1.1-1.5 mm (V1-V3, X3). The membrane potential of the impaled muscle fibre was recorded by all electrodes. Two of the electrodes were furthermore used to inject 50 ms current pulses of −30 nA. […] The steady state voltage deflection at each distance was divided by the magnitude of current injected (−30 nA) and the resulting transfer resistances were plotted against inter-electrode distance and the data was fitted to a mono-exponential function from which Gm could be calculated using linear cable theory.
To establish a dose response relationship, Gm was first determined in 10 muscle fibres in the absence of compound and then at four increasing compound concentrations with Gm determinations in 5-10 fibres at each concentration. The average Gm values at each concentration were plotted against compound concentration and the data was fitted to sigmoidal function to obtain an EC5o value.

The subject of test [2] is isolated rat soleus nerve-muscle preparations. Put plainly: Measurement of force in an in vitro model: recovery of nerve-stimulated contractile force after tubocurarine. To be noted: 40 min, after 40 mins of compound exposure, tubocurarine (115 nM) for 90 minutes, read-out: Point increase (%): percentage increase of initial force that was restored; for activation at 10 µM: 10 μM of test compound; for activation at 50 µM: 50 μM of test compound. As to the method: In one aspect, the invention relates to a method for recovery of force in muscles with neuromuscular dysfunction, said method comprising administering a compound or a composition as defined herein to a subject in need thereof. The term “recovery of force in muscles with neuromuscular dysfunction” as used herein refers to the ability of a compound to recover contractile force in nerve-stimulated healthy rat muscle after exposure to submaximal concentration (115 nM) of tubocurarine for 90 minutes.
Recovery of force is quantified as the percentage of the force prior to tubocurarine that is recovered after addition of the compound. In one embodiment, said recovery of force is >5%, such as >10%, such as >15%, such as >20%, such as >25%, such as >30%, such as >35%.
The current disclosure relates to compounds that inhibit CIC-1 ion channels and increase muscle excitability and thereby improve muscle function in clinical conditions where muscle activation is failing. Such conditions result in loss of contractile function of skeletal muscle, weakness and excessive fatigue. In this series of experiments the compounds were tested for their ability to restore contractile function of isolated rat muscle when the neuromuscular transmission had been compromised akin to neuromuscular disorders.
Experimentally, soleus muscles from 4-5 week old rats were isolated with the motor nerve remaining attached. The nerve-muscle preparations were mounted in experimental setups that enabled electrical stimulation of the motor nerve. Stimulation of the motor nerve led to activation of the muscle fibres and ensuing force production that was recorded. The nerve-muscle preparations were also in these experiments incubated in the standard Krebs Ringer (see example 15) and the solution was heated to 30° C. and continuously equilibrated with a mixture of 95% O2 and 5% CO2, pH ~7.4.
After mounting the nerve-muscle preparation in the experimental setup, the contractile function of the muscle was initially assessed under the control conditions. Sub-maximal concentration of tubocurarine (115 nM), an acetylcholine receptor antagonist, was then added to the experimental bath to impose partial inhibition of the ability of the motor nerve to activate the muscle fibres. The experimental condition mimics the failing neuromuscular transmission in a range of neuromuscular disorders. After addition of tubocurarine the contractile force declined over the next 90 minutes to 10-50% of the control force. The test compound was then added to obtain the required compound concentration in the bath and the contractile force recovered was measured. To quantify the ability of the compound to restore force the percentage of the initial force that was restored was determined after 40 mins of compound exposure and the point increase is reported in Tables 3 to 7.

pEC50: −log10 of the molar value.

Regarding `O=C(O)c1cc(Cl)cc2c1CCCC2` [Compound A-3, 3-chloro-5,6,7,8-tetrahydronaphthalene-1-carboxylic acid], the pEC50 in test [1] is 5.00 to 5.70. Moreover, the activation at 10 µM in test [2] is 38%.
Take `Cc1cc2c(c(C(=O)O)c1C)CCC2` [Compound A-4, 5,6-dimethyl-2,3-dihydro-1H-indene-4-carboxylic acid]: the pEC50 in test [1] is 4.70 to 5.00. In test [2], the activation at 50 µM turned out to be 30%.
In the same order, the values of `Cc1cc2c(c(C(=O)O)c1C)CCCC2` [Compound A-5, 2,3-dimethyl-5,6,7,8-tetrahydronaphthalene-1-carboxylic acid] are 4.70 to 5.00 and 43%.
Consider `COc1c(Cl)cc2c(c1C(=O)O)CCC2` [Compound A-6, 6-Chloro-5-methoxy-2,3-dihydro-1H-indene-4-carboxylic acid], for which, in test [1], the pEC50 is 5.70 to 6.70. In addition, the activation at 10 µM in test [2] is 42%.
For `COc1c(Cl)cc2c(c1C(=O)O)CCCC2` [Compound A-8, 3-Chloro-2-methoxy-5,6,7,8-tetrahydronaphthalene-1-carboxylic acid], in that order: 5.70 to 6.70 and 50%.
For the molecule `Cc1c(Cl)cc2c(c1C(=O)O)CCCC2` [Compound A-9, 3-Chloro-2-methyl-5,6,7,8-tetrahydronaphthalene-1-carboxylic acid], in test [1], the pEC50 was 5.00 to 5.70. Further, the activation at 10 µM in test [2] is 14%.
In the same order, the values of `O=C(O)c1c2c(cc(Cl)c1OC(F)F)CCC2` [Compound A-10, 6-Chloro-5-(difluoromethoxy)-2,3-dihydro-1H-indene-4-carboxylic acid] are 5.00 to 5.70 and 36%.
Consider `CCc1c(Cl)cc2c(c1C(=O)O)CCC2` [Compound A-13, 6-Chloro-5-ethyl-2,3-dihydro-1H-indene-4-carboxylic acid], for which, in test [1], the pEC50 is 4.70 to 5.00. Besides, in test [2], the activation at 50 µM turned out to be 26%.
For `Cc1c(Cl)cc2c(c1C(=O)O)OCCC2` [Compound A-14, 6-Chloro-7-methyl-3,4-dihydro-2H-1-benzopyran-8-carboxylic acid], in that order: 4.70 to 5.00 and 39%.
On to `COc1c(Cl)cc2c(c1C(=O)O)OCC2` [Compound A-15, 5-Chloro-6-methoxy-2,3-dihydro-1-benzofuran-7-carboxylic acid], for which the pEC50 in test [1] was 5.00 to 5.70. Also, the activation at 50 µM in test [2] came out at 40%.
Regarding `COc1c(Cl)cc2c(c1C(=O)O)C1CCC2C1` (stereo not drawn) [Compound A-16, 5-Chloro-4-methoxytricyclo[6.2.1.0^2,7]undeca-2(7),3,5-triene-3-carboxylic acid], in test [1], the negative-log EC50 (pEC50) is 5.70 to 6.70. In test [2], the activation at 10 µM stood at 43%.
Consider `O=C(O)c1cc(Cl)c(F)c2c1CCCC2` [Compound A-17, 3-Chloro-4-fluoro-5,6,7,8-tetrahydronaphthalene-1-carboxylic acid], for which the pEC50 in test [1] was 4.70 to 5.00. Also, the activation at 50 µM in test [2] worked out at 41%.
For the molecule `COc1c(F)cc2c(c1C(=O)O)CCCC2` [Compound A-18, 3-Fluoro-2-methoxy-5,6,7,8-tetrahydronaphthalene-1-carboxylic acid], in test [1], the pEC50 is 5.70 to 6.70. For the same molecule, the activation at 10 µM in test [2] was 46%.
In the case of `COc1c(Cl)c(F)c2c(c1C(=O)O)CCCC2` [Compound A-19, 3-Chloro-4-fluoro-2-methoxy-5,6,7,8-tetrahydronaphthalene-1-carboxylic acid], the pEC50 in test [1] was 5.70 to 6.70. Further, in test [2], the activation at 50 µM amounted to 41%.
In the same order, the values of `Cc1cc2c(c(C(=O)O)c1Cl)C1CCC2C1` (stereo not drawn) [Compound A-20, 4-chloro-5-methyltricyclo[6.2.1.0^2,7]undeca-2,4,6-triene-3-carboxylic acid] are 5.00 to 5.70 and 38%.
For `Cc1c(Cl)cc2c(c1C(=O)O)C1CCC2C1` (stereo not drawn) [Compound A-21, 5-chloro-4-methyltricyclo[6.2.1.0^2,7]undeca-2(7),3,5-triene-3-carboxylic acid], in that order: 4.70 to 5.00 and 42%.
As for `COc1c(Cl)cc2c(c1C(=O)O)CCCCC2` [Compound A-22, 3-Chloro-2-methoxy-6,7,8,9-tetrahydro-5H-benzo[7]annulene-1-carboxylic acid], the pEC50 in test [1] is 5.70 to 6.70. Besides, the activation at 10 µM in test [2] amounted to 33%.
Regarding `CSc1c(Cl)cc2c(c1C(=O)O)CCC2` [Compound A-23, 6-Chloro-5-(methylsulfanyl)-2,3-dihydro-1H-indene-4-carboxylic acid], the pEC50 in test [1] was 5.00 to 5.70. In addition, the activation at 50 µM in test [2] stood at 44%.
In the same order, the values of `COc1cc2c(c(C(=O)O)c1Cl)CCCCC2` [Compound A-24, 2-Chloro-3-methoxy-6,7,8,9-tetrahydro-5H-benzo[7]annulene-1-carboxylic acid] are 5.00 to 5.70 and 43%.
For the molecule `O=C(O)c1c2c(cc(Cl)c1OC(F)F)CCCC2` [Compound A-25, 3-Chloro-2-(difluoromethoxy)-5,6,7,8-tetrahydronaphthalene-1-carboxylic acid], the pEC50 in test [1] is 5.70 to 6.70. For the same molecule, the activation at 10 µM in test [2] was 43%.
As to `O=C(O)c1c(F)c(Cl)cc2c1CCCC2` [Compound A-26, 3-Chloro-2-fluoro-5,6,7,8-tetrahydronaphthalene-1-carboxylic acid], in test [1], the pEC50 is 5.70 to 6.70. In addition, the activation at 10 µM in test [2] stood at 52%.

The values are drawn from patent publication US20260199273A1, “Compounds for the Treatment of Neuromuscular Disorders” (NMD PHARMA A/S, priority 2022, published 2026).
